Data as given in EP0108170A1, “3-Benzazepines as alpha-2 antagonists” (SMITHKLINE BECKMAN CORPORATION, priority 1982, dated 1984).

How the values were obtained:
alpha2 = assay: prejunctional alpha2 antagonist activity, isolated superfused guinea pig left atrium (shift of clonidine concentration-response curve); format: cell-based
Procedure: Briefly, the heart is removed from a pentobarbital-anesthetized male guinea pig. The left atrium is removed, dissected free of extraneous tissue and mounted in a 2 ml. superfusion chamber. The tissue is paced at 60 pulse/minute and the sympathetic nerves excited at 6 minute intervals by field stimulation. The response to nerve stimulation is measured as the difference in contractile force between the basal contraction and peak contraction following a nerve stimulation. A concentration-response curve for clonidine (alpha2 agonist) is prepared by administering an increasing concentration of clonidine following each successive stimulation. The tissue is then superfused with the alpha2 antagonist to be tested for thirty minutes and the clonidine concentration-effect curve was repeated in the presence of antagonist. The receptor dissociation constant of the antagonist (KB) is defined as the antagonist concentration required to shift the log concentration-response curve of the agonist to the right by a factor of 2.

[1] = tested on: normotensive and hypertensive rats; assay: antihypertensive activity in vivo, blood pressure in conscious cannulated rats; conditions: for effect on diastolic blood pressure: i.v. administration
Procedure: Cannulas are run intradermally so as to be externalized in the dorso-sacral area of either side and kept in place by wound clips. The rats are allowed to regain consciousness after being placed in a small animal restrainer. The arterial cannula is connected to a pressure transducer for constant blood pressure and heart rate monitoring. Drugs are administered either orally via gavage or i.v. via the femoral vein cannula at a rate of 0.06 ml./minute.
The above test is conducted on both normotensive and hypertensive rats. DOCA Salt hypertensive rats are prepared from male uninephrectomized Sprague-Dawley rats. The rats, approximately six weeks of age, are lightly anesthetized with ether and subcutaneously implanted with a 25 mg. deoxycorticosterone acetate pellet in the left dorso-sacral area..Six days later a second pellet is implanted in the right dorso-sacral area. These rats are fed a normal laboratory diet, but are given 1% saline - solution to drink in place of water. The rats are kept on the saline drinking water for 22-24 days.
The following table sets forth the effect of 6-chloro-2,3,4,5-tetrahydro-3-methyl-lH-3-benzazepine on blood pressure after i.v. administration to both normotensive and hypertensive rats.

rabbit = assay: normal rabbit intraocular pressure determination (applanation pneumatonograph); format: in vivo; conditions: given systemically

Row | Structure (SMILES) | Kb (alpha2; isolated perfused guinea pig left atrium, antagonist concentration shifting clonidine curve to the right by a factor of 2) | effect on diastolic blood pressure ([1]; DOCA Salt hypertensive rats) | antihypertensive effect, dose dependence ([1]; comparison of the 0.5 mg./kg. and 1.0 mg./kg. doses, i.v.) | effect on diastolic blood pressure ([1]; normotensive rats) | effect on diastolic blood pressure ([1]; spontaneously hypertensive rats) | effect on systemic blood pressure (rabbit) | alpha2 antagonist activity relative to the 6-chloro derivative (alpha2; fraction of the activity of the 6-chloro derivative)
1 | CN1CCc2cccc(Cl)c2CC1 [6-chloro-2,3,4,5-tetrahydro-3-methyl-lH-3-benzazepine] | 13 nM | marked drop | dose- related | little effect | marked drop | no significant effect | 
2 | CN1CCc2ccc(Cl)cc2CC1 [7-chloro-2,3,4,5-tetrahydro-3-methyl-lH-3-benzazepine, reference compound] |  |  |  |  |  |  | about one tenth
